Experimental data as given in ChEMBL document CHEMBL6083204, “Synthesis of a celastrol derivative as a cancer stem cell inhibitor through regulation of the STAT3 pathway for treatment of ovarian cancer” (RSC Med Chem, 2024).
Active and inactive are the calls of the source. No cut-off for these calls is given here.

Key:
[1] = Toxicity in BALB/c mouse xenografted with human SK-OV-3 cells assessed as pathological change in lung at 2 to 5 mg/kg,ip administrated for 21 consecutive days by hematoxylin and eosin staining based assay; type: organism-based; conditions: in vivo, dose 2-5 mg/kg
SK-OV-3 [2] = test: Induction of apoptosis in human SK-OV-3 cells assessed as increase in caspase-8 activity at 0.8 uM incubated for 24 hrs by flow cytometry (reference value: 2.5 %); type: functional
A2780 [3] = test: Inhibition of human A2780 cells spheroid formation assessed as reduction in spheroid size at 0.1 to 0.4 uM incubated for 10 days by inverted microscopic analysis; type: functional, cell-based; conditions: dose 0.1-0.4 µM, time 10.0 day
SK-OV-3 [4] = test: Induction of apoptosis in human SK-OV-3 cells assessed as late apoptotic cells at 0.4 uM incubated for 24 hrs by Annexin V-FITC/7-AAD staining based flow cytometry (reference value: 3.7 %); type: functional
A2780 [5] = test: Induction of apoptosis in human A2780 cells assessed as necrotic cells at 0.4 uM incubated for 24 hrs by Annexin V-FITC/7-AAD staining based flow cytometry (reference value: 1 %); type: functional
A2780 [6] = test: Induction of cell cycle arrest in human A2780 cells assessed as accumulation of cells at G0/G1 phase at 0.8 uM incubated for 24 hrs by BrdU staining based flow cytometry (reference value: 42.4 %); type: functional
SK-OV-3 [7] = test: Antitumor activity against human SK-OV-3 cells xenografted in BALB/c mouse assessed as reduction in tumor weight at 5 mg/kg,ip administrated for 21 consecutive days; type: functional, organism-based
A2780 [8] = test: Induction of cell cycle arrest in human A2780 cells assessed as reduction of CDK4 expression at 0.2 uM incubated for 24 hrs by flow cytometry (reference value: 93.6 %); type: functional; design: scale not given: the % may be the effect or the level left
SK-OV-3 [9] = test: Induction of apoptosis in human SK-OV-3 cells assessed as early apoptotic cells at 0.2 uM incubated for 24 hrs by Annexin V-FITC/7-AAD staining based flow cytometry (reference value: 1.6 %); type: functional
SK-OV-3 [10] = test: Induction of cell cycle arrest in human SK-OV-3 cells assessed as reduction of Cyclin D1 expression at 0.8 uM incubated for 24 hrs by flow cytometry (reference value: 93.8 %); type: functional; design: scale not given: the % may be the effect or the level left
[11] = biological target: Signal transducer and activator of transcription 3 (Homo sapiens) (UniProt P40763); test: Inhibition of STAT3 in human SK-OV-3 cells assessed as downregulation of survivin expression at 0.1 to 0.4 uM incubated for 24 hrs by Western blotting analysis; type: cell-based; conditions: dose 0.1-0.4 µM
Sequence of Signal transducer and activator of transcription 3 (Homo sapiens) (P40763 whole entry): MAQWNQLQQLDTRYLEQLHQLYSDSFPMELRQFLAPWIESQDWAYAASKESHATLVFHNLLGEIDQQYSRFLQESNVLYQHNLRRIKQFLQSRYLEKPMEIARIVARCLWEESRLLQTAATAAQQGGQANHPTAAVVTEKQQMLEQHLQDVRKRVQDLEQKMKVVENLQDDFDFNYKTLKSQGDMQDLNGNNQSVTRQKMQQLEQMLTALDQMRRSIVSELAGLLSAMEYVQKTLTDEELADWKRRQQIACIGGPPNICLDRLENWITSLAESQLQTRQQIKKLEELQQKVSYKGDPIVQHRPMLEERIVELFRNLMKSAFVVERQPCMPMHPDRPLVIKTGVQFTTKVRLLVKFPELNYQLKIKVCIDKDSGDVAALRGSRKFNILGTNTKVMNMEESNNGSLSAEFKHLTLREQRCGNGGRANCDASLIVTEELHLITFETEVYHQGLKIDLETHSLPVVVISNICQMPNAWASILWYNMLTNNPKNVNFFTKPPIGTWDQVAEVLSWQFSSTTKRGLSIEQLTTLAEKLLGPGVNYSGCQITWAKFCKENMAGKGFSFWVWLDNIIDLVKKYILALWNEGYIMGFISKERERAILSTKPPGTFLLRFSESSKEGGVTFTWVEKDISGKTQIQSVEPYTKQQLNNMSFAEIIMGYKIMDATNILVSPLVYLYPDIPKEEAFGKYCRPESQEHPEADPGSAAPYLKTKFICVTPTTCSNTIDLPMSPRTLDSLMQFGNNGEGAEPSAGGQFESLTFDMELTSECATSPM

SK-OV-3 [12] = test: Induction of apoptosis in human SK-OV-3 cells assessed as increase in caspase-8 activity at 0.4 uM incubated for 24 hrs by flow cytometry (reference value: 2.5 %); type: functional
A2780 [13] = test: Induction of cell cycle arrest in human A2780 cells assessed as reduction of Cyclin D1 expression at 0.8 uM incubated for 24 hrs by flow cytometry (reference value: 92.5 %); type: functional; design: scale not given: the % may be the effect or the level left
SK-OV-3 [14] = test: Induction of apoptosis in human SK-OV-3 cells assessed as late apoptotic cells at 0.2 uM incubated for 24 hrs by Annexin V-FITC/7-AAD staining based flow cytometry (reference value: 3.7 %); type: functional
[15] = Selectivity index, ratio of IC50 for cytotoxicity against human IOSE80 cells to IC50 for cytotoxicity against human SK-OV-3 cells
A2780 [16] = test: Inhibition of human A2780 cells spheroid formation assessed as reduction in spheroid number at 0.1 to 0.4 uM incubated for 10 days by inverted microscopic analysis; type: functional, cell-based; conditions: dose 0.1-0.4 µM, time 10.0 day
[17] = Toxicity in BALB/c mouse xenografted with human SK-OV-3 cells assessed as pathological change in liver at 2 to 5 mg/kg,ip administrated for 21 consecutive days by hematoxylin and eosin staining based assay; type: organism-based; conditions: in vivo, dose 2-5 mg/kg
[18] = biological target: Signal transducer and activator of transcription 3 (Homo sapiens) (UniProt P40763); test: Inhibition of STAT3 in human SK-OV-3 cells assessed as downregulation of STAT3 phosphorylation at Ser727 residue in nuclei at 0.2 uM incubated for 24 hrs by Hoechst33342 staining based immunofluorescence assay; type: cell-based
SK-OV-3 [19] = test: Induction of cell cycle arrest in human SK-OV-3 cells assessed as reduction of CDK2 expression at 0.4 uM incubated for 24 hrs by flow cytometry (reference value: 94.4 %); type: functional; design: scale not given: the % may be the effect or the level left
A2780 [20] = test: Induction of cell cycle arrest in human A2780 cells assessed as accumulation of cells at G2/M phase at 0.4 uM incubated for 24 hrs by BrdU staining based flow cytometry (reference value: 6.2 %); type: functional
SK-OV-3 [21] = test: Induction of cell cycle arrest in human SK-OV-3 cells assessed as accumulation of cells at S phase at 0.8 uM incubated for 24 hrs by BrdU staining based flow cytometry (reference value: 33.6 %); type: functional
SK-OV-3 [22] = test: Induction of cell cycle arrest in human SK-OV-3 cells assessed as accumulation of cells at G0/G1 phase at 0.4 uM incubated for 24 hrs by BrdU staining based flow cytometry (reference value: 59.8 %); type: functional
[23] = Toxicity in BALB/c mouse xenografted with human SK-OV-3 cells assessed as change in body weight at 2 to 5 mg/kg,ip administrated for 21 consecutive days; type: organism-based; conditions: in vivo, dose 2-5 mg/kg
SK-OV-3 [24] = test: Antiproliferative activity against human SK-OV-3 cells assessed as decrease in ALDH positive cells at 0.4 uM incubated for 24 hrs by ALDEFLUOR staining based flow cytometry (reference value: 3.83 %); type: functional; design: scale not given: the % may be the effect or the level left
A2780 [25] = test: Inhibition of cell migration in human A2780 cells assessed as reduction in number of migrated cells at 0.1 to 0.4 uM incubated for 24 hrs by crystal violet staining based transwell assay; type: functional; conditions: dose 0.1-0.4 µM
SK-OV-3 [26] = test: Antitumor activity against human SK-OV-3 cells xenografted in BALB/c mouse assessed as reduction in number of tumor cells at 2 to 5 mg/kg,ip administrated for 21 consecutive days by hematoxylin and eosin staining based assay; type: functional, organism-based; conditions: dose 2-5 mg/kg
A2780 [27] = test: Induction of cell cycle arrest in human A2780 cells assessed as reduction of Cyclin D1 expression at 0.2 uM incubated for 24 hrs by flow cytometry (reference value: 92.5 %); type: functional; design: scale not given: the % may be the effect or the level left
A2780 [28] = test: Induction of cell cycle arrest in human A2780 cells assessed as accumulation of cells at G0/G1 phase at 0.4 uM incubated for 24 hrs by BrdU staining based flow cytometry (reference value: 42.4 %); type: functional
A2780 [29] = test: Induction of ROS production in human A2780 cells assessed as increase in fluorescence intensity incubated for 24 hrs by DCFH-DA staining based flow cytometry; type: functional, cell-based
A2780 [30] = test: Induction of apoptosis in human A2780 cells assessed as necrotic cells at 0.2 uM incubated for 24 hrs by Annexin V-FITC/7-AAD staining based flow cytometry (reference value: 1 %); type: functional
SK-OV-3 [31] = test: Inhibition of cell migration in human SK-OV-3 cells assessed as downregulation of FAK expression at 0.1 to 0.4 uM incubated for 24 hrs by Western blotting analysis; type: functional, cell-based; conditions: dose 0.1-0.4 µM
SK-OV-3 [32] = test: Inhibition of cell migration in human SK-OV-3 cells assessed as reduction in number of migrated cells at 0.1 to 0.4 uM incubated for 24 hrs by crystal violet staining based transwell assay; type: functional; conditions: dose 0.1-0.4 µM

With `CC1=C(O)C(=O)C=C2C1=CC=C1[C@@]2(C)CC[C@@]2(C)[C@@H]3C[C@](C)(C(=O)N4CCNCC4)CC[C@]3(C)CC[C@]12C` the Activity [1] was “Non-toxic”, the Activity (SK-OV-3 [2]) was 74.7% and the inhibition (A2780 [3]) was “Active”. It also gave an Activity (SK-OV-3 [4]) of 11.5%, an Activity (A2780 [5]) of 2.3% and an Activity (A2780 [6]) of 70.5%. The Activity (SK-OV-3 [7]) was “Active; Showed Moderate Reduction Activity”, the Activity (A2780 [8]) was 74.6% and the Activity (SK-OV-3 [9]) was 17.3%. The Activity (SK-OV-3 [10]) was 53.1%, the inhibition [11] was “Active” and the Activity (SK-OV-3 [12]) was 36.7%. The Activity (A2780 [13]) was 15%, the Activity (SK-OV-3 [14]) was 7.8% and the “Ratio IC50” value [15] was 4.81. The inhibition (A2780 [16]) was “Active”, the Activity [17] was “Non-toxic” and the inhibition [18] was “Active”. For the same compound, the Activity (SK-OV-3 [19]) was 80.7%, the Activity (A2780 [20]) was 10.1% and the Activity (SK-OV-3 [21]) was 37.2%. The Activity (SK-OV-3 [22]) was 49.2%, the Activity [23] was “Non-toxic” and the Activity (SK-OV-3 [24]) was 1.3%. For the same compound, the inhibition (A2780 [25]) was “Active”, the Activity (SK-OV-3 [26]) was “Active” and the Activity (A2780 [27]) was 85.2%. For the same compound, the Activity (A2780 [28]) was 64.7%, the Activity (A2780 [29]) was “Dose-dependent-effect” and the Activity (A2780 [30]) was 1%. The inhibition (SK-OV-3 [31]) was “Active” and the inhibition (SK-OV-3 [32]) was “Active”.
